Results from patent publication EP4752152A1, “STEROID COMPOUND, AND PREPARATION METHOD THEREFOR AND USE THEREOF” (Cholesgen (Shanghai) Co.Ltd., priority 2023, dated 2025).

Tested on: SREBP pathway
Assay: SREBP luciferase reporter gene system (SRE-luciferase assay)
Format: cell-based, human
Conditions: Huh-7/SRE-luc cells, sterol-deficient medium, 0.01-10 µM
Method in brief: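 Readout was SRE-driven luciferase normalised to GFP fluorescence in lysates of stably transfected Huh-7/SRE-luc hepatoma cells. Compounds (0.01, 0.03, 0.1, 0.3, 1.0, 3.0, 10 µM; DMSO control) were applied for 16 h in sterol-depleted medium with 2 µM lovastatin and 10 µM mevalonate; IC50 from variable-slope fit.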

`C[C@H](CCCC(O)c1cncc2c1cnn2C)[C@H]1CC[C@H]2[C@H]3[C@H](CC[C@]12C)[C@@]1(C)CC[C@H](O)[C@H](O)[C@@H]1CC3(F)F` (single isomer, unassigned) [Compound 288, (1R,3aS,3bS,5aR,6R,7S,9aR,9bS,11aR)-4,4-difluoro-1-[(2R,6R)-6-hydroxy-6-(1-methylpyrazolo[3,4-c]pyridin-4-yl)hexan-2-yl]-9a,11a-dimethylhexadecahydro-1H-cyclopenta[1,2-a]phenanthrene-6,7-diol or (1R,3aS,3bS,5aR,6R,7S,9aR,9bS,11aR)-4,4-difluoro-1-[(2R,6S)-6-hydroxy-6-(1-methylpyrazolo[3,4-c]pyridin-4-yl)hexan-2-yl]-9a,11a-dimethylhexadecahydro-1H-cyclopenta[1,2-a]phenanthrene-6,7-diol] was tested, and the IC50 (16 hours) was 0.388 µM.

Work on `COc1nccnc1[C@@H](O)CCC[C@@H](C)[C@H]1CC[C@H]2[C@H]3[C@H](CC[C@]12C)[C@@]1(C)CC[C@H](O)[C@H](O)[C@@H]1CC3(F)F` [Compound 155, (1R,3aS,3bS,5aR,6R,7S,9aR,9bS,11aR)-4,4-difluoro-1-[(2R,6S)-6-hydroxy-6-(3-methoxypyrazin-2-yl)hexan-2-yl]-9a,11a-dimethylhexadecahydro-1H-cyclopenta[1,2-a]phenanthrene-6,7-diol] yielded an IC50 (Homo sapiens, Huh-7, 16 h) of 0.188 µM.

In the case of `COc1ccc(F)cc1[C@H](O)CCC[C@@H](C)[C@H]1CC[C@H]2[C@H]3[C@H](CC[C@]12C)[C@@]1(C)CC[C@H](O)[C@H](O)[C@@H]1CC3(F)F` [Compound 169, (1R,3aS,3bS,5aR,6R,7S,9aR,9bS,11aR)-4,4-difluoro-1-[(2R,6R)-6-(5-fluoro-2-methoxyphenyl)-6-hydroxyhexan-2-yl]-9a,11a-dimethylhexadecahydro-1H-cyclopenta[1,2-a]phenanthrene-6,7-diol], the IC50 (Homo sapiens, Huh-7, 16 h) is reported as 0.075 µM.

Molecule `COc1ncncc1C(O)CCC[C@@H](C)[C@H]1CC[C@H]2[C@H]3[C@H](CC[C@]12C)[C@@]1(C)CC[C@H](O)[C@H](O)[C@@H]1CC3(F)F` (stereo partly drawn) [Compound 152, (1R,3aS,3bS,5aR,6R,7S,9aR,9bS,11aR)-4,4-difluoro-1-[(2R)-6-hydroxy-6-(4-methoxypyrimidin-5-yl)hexan-2-yl]-9a,11a-dimethylhexadecahydro-1H-cyclopenta[1,2-a]phenanthrene-6,7-diol] has an IC50 (Homo sapiens, Huh-7, 16 h) of 0.14 µM.

`C[C@H](CCCC(O)c1cccc2cnn(C)c12)[C@H]1CC[C@H]2[C@H]3[C@H](CC[C@]12C)[C@@]1(C)CC[C@H](O)[C@H](O)[C@@H]1CC3(F)F` (stereo partly drawn) [Compound 207, (1R,3aS,3bS,5aR,6R,7 S,9aR,9bS,11aR)-4,4-Difluoro-1-[(2R)-6-hydroxy-6-(1-methylindazol-7-yl)hexan-2-yl]-9a,11a-dimethylhexadecahydro-1H-cyclopenta[1,2-a]phenanthrene-6,7-diol] gave an IC50 (Homo sapiens, Huh-7, 16 h) of 0.206 µM.

`COc1cc(C(O)CCC[C@@H](C)[C@H]2CC[C@H]3[C@H]4[C@H](CC[C@]23C)[C@@]2(C)CC[C@H](O)[C@H](O)[C@@H]2CC4(F)F)cc(F)n1` (single isomer, unassigned) [Compound 248, (1R,3aS,3bS,5aR,6R,7S,9aR,9bS,11aR)-4,4-difluoro-1-[(2R,6R)-6-(6-fluoro-2-methoxypyridin-4-yl)-6-hydroxyhexan-2-yl]-9a,11a-dimethylhexadecahydro-1H-cyclopenta[1,2-a]phenanthrene-6,7-diol or (1R,3aS,3bS,5aR,6R,7S,9aR,9bS,11aR)-4,4-difluoro-1-[(2R,6S)-6-(6-fluoro-2-methoxypyridin-4-yl)-6-hydroxyhexan-2-yl]-9a,11a-dimethylhexadecahydro-1H-cyclopenta[1,2-a]phenanthrene-6,7-diol] gave an IC50 (16 hours) of 0.035 µM.

With `C[C@H](CCCC(O)c1cccc(OC(F)(F)F)c1)[C@H]1CC[C@H]2C3=C(F)C[C@H]4[C@@H](O)[C@@H](O)CC[C@]4(C)[C@H]3CC[C@]12C` (stereo partly drawn) [Compound 88, (1R,3aR,5aR,6R,7S,9aR,9bR,11aR)-4-fluoro-1-[(2R)-6-hydroxy-6-{3-[(trifluoromethyl)oxy]phenyl}hexan-2-yl]-9a,11a-dimethyl-2,3,3a,5,5a,6,7,8,9,9a,9b,10,11,11a-tetradecahydro-1H-cyclopenta[1,2-a]phenanthrene-6,7-diol] the IC50 (Homo sapiens, Huh-7, 16 h) was 0.622 µM.

Molecule `C[C@H](CCCC(O)c1[nH]ncc1F)[C@H]1CC[C@H]2[C@H]3[C@H](CC[C@]12C)[C@@]1(C)CC[C@H](O)[C@H](O)[C@@H]1CC3(F)F` (stereo partly drawn) [Compound 237, (1R,3aS,3bS,5aR,6R,7S,9aR,9bS,11aR)-4,4-difluoro-1-[(2R)-6-(4-fluoro-2H-pyrazol-3-yl)-6-hydroxyhexan-2-yl]-9a,11a-dimethylhexadecahydro-1H-cyclopenta[1,2-a]phenanthrene-6,7-diol] has an IC50 (Homo sapiens, Huh-7, 16 h) of 0.726 µM.

`C[C@H](CCCC(O)c1ccc(F)nc1OCC1COC1)[C@H]1CC[C@H]2[C@H]3[C@H](CC[C@]12C)[C@@]1(C)CC[C@H](O)[C@H](O)[C@@H]1CC3(F)F` (stereo partly drawn) [Compound 383, (1R,3aS,3bS,5aR,6R,7S,9aR,9bS,11aR)-4,4-difluoro-1-[(2R)-6-{6-fluoro-2-[(oxetan-3-ylmethyl)oxy]pyridin-3-yl}-6-hydroxyhexan-2-yl]-9a,11a-dimethylhexadecahydro-1H-cyclopenta[1,2-a]phenanthrene-6,7-diol] was tested, and the IC50 (Homo sapiens, Huh-7, 16 h) was 0.041 µM.

`C[C@H](CCCC(O)c1cccc2cnn(C)c12)[C@H]1CC[C@H]2[C@H]3[C@H](CC[C@]12C)[C@@]1(C)CC[C@H](O)[C@H](O)[C@@H]1CC3(F)F` (single isomer, unassigned) [Compound 243, (1R,3aS,3bS,5aR,6R,7S,9aR,9bS,11aR)-4,4-difluoro-1-[(2R,6S)-6-hydroxy-6-(1-methylindazol-7-yl)hexan-2-yl]-9a,11a-dimethylhexadecahydro-1H-cyclopenta[1,2-a]phenanthrene-6,7-diol or (1R,3aS,3bS,5aR,6R,7S,9aR,9bS,11aR)-4,4-difluoro-1-[(2R,6R)-6-hydroxy-6-(1-methylindazol-7-yl)hexan-2-yl]-9a,11a-dimethylhexadecahydro-1H-cyclopenta[1,2-a]phenanthrene-6,7-diol] showed an IC50 (16 hours) of 0.134 µM.

Molecule `C[C@H](CCC[C@H](O)c1ccc(F)nc1OCC1COC1)[C@H]1CC[C@H]2[C@H]3[C@H](CC[C@]12C)[C@@]1(C)CC[C@H](O)[C@H](O)[C@@H]1CC3(F)F` [Compound 385, (1R,3aS,3bS,5aR,6R,7S,9aR,9bS,11aR)-4,4-difluoro-1-[(2R,6S)-6-{6-fluoro-2-[(oxetan-3-ylmethyl)oxy]pyridin-3-yl}-6-hydroxyhexan-2-yl]-9a,11a-dimethylhexadecahydro-1H-cyclopenta[1,2-a]phenanthrene-6,7-diol] has an IC50 (Homo sapiens, Huh-7, 16 h) of 0.332 µM.

With `COc1cccc(F)c1C(O)CCCC(C)C1CCC2C3=C(F)CC4C(O)C(O)CCC4(C)C3CCC21C` (single isomer, unassigned) [Compound 164] the IC50 (16 hours) was 0.295 µM.

Work on `COc1cccc(OC)c1C(O)CCC[C@@H](C)[C@H]1CC[C@H]2C3=C(F)C[C@H]4[C@@H](O)[C@@H](O)CC[C@]4(C)[C@H]3CC[C@]12C` (stereo partly drawn) [Compound 115, (1R,3aR,5aR,6R,7S,9aR,9bR,11aR)-1-[(2R)-6-(2,6-dimethoxyphenyl)-6-hydroxyhexan-2-yl]-4-fluoro-9a,11a-dimethyl-2,3,3a,5,5a,6,7,8,9,9a,9b,10,11,11a-tetradecahydro-1H-cyclopenta[1,2-a]phenanthrene-6,7-diol] yielded an IC50 (Homo sapiens, Huh-7, 16 h) of 0.613 µM.

For `C[C@H](CCCC(O)c1ccc(F)nc1O)[C@H]1CC[C@H]2[C@H]3[C@H](CC[C@]12C)[C@@]1(C)CC[C@H](O)[C@H](O)[C@@H]1CC3(F)F` (stereo partly drawn) [Compound 276, (1R,3aS,3bS,5aR,6R,7S,9aR,9bS,11aR)-4,4-difluoro-1-[(2R)-6-(6-fluoro-2-hydroxypyridin-3-yl)-6-hydroxyhexan-2-yl]-9a,11a-dimethylhexadecahydro-1H-cyclopenta[1,2-a]phenanthrene-6,7-diol], the IC50 (Homo sapiens, Huh-7, 16 h) was 0.925 µM.

`COc1cc(Cl)ccc1[C@@H](O)CCC[C@@H](C)[C@H]1CC[C@H]2[C@H]3[C@H](CC[C@]12C)[C@@]1(C)CC[C@H](O)[C@H](O)[C@@H]1CC3(F)F` [Compound 112, (1R,3aS,3bS,5aR,6R,7S,9aR,9bS,11aR)-1-[(2R,6S)-6-(4-chloro-2-methoxyphenyl)-6-hydroxyhexan-2-yl]-4,4-difluoro-9a,11a-dimethylhexadecahydro-1H-cyclopenta[1,2-a]phenanthrene-6,7-diol] showed an IC50 (Homo sapiens, Huh-7, 16 h) of 0.318 µM.

`C[C@H](CCCC(O)c1cncc2c1cnn2C)[C@H]1CC[C@H]2[C@H]3[C@H](CC[C@]12C)[C@@]1(C)CC[C@H](O)[C@H](O)[C@@H]1CC3(F)F` (single isomer, unassigned) [Compound 287, (1R,3aS,3bS,5aR,6R,7S,9aR,9bS,11aR)-4,4-difluoro-1-[(2R,6S)-6-hydroxy-6-(1-methylpyrazolo[3,4-c]pyridin-4-yl)hexan-2-yl]-9a,11a-dimethylhexadecahydro-1H-cyclopenta[1,2-a]phenanthrene-6,7-diol or (1R,3aS,3bS,5aR,6R,7S,9aR,9bS,11aR)-4,4-difluoro-1-[(2R,6R)-6-hydroxy-6-(1-methylpyrazolo[3,4-c]pyridin-4-yl)hexan-2-yl]-9a,11a-dimethylhexadecahydro-1H-cyclopenta[1,2-a]phenanthrene-6,7-diol] gave an IC50 (16 hours) of 0.131 µM.

With `COc1nc(C(O)CCC[C@@H](C)[C@H]2CC[C@H]3[C@H]4[C@H](CC[C@]23C)[C@@]2(C)CC[C@H](O)[C@H](O)[C@@H]2CC4(F)F)cs1` (single isomer, unassigned) [Compound 220, (1R,3aS,3bS,5aR,6R,7S,9aR,9bS,11aR)-4,4-difluoro-1-[(2R,6R)-6-hydroxy-6-(2-methoxy-1,3-thiazol-4-yl)hexan-2-yl]-9a,11a-dimethylhexadecahydro-1H-cyclopenta[1,2-a]phenanthrene-6,7-diol or (1R,3aS,3bS,5aR,6R,7S,9aR,9bS,11aR)-4,4-difluoro-1-[(2R,6S)-6-hydroxy-6-(2-methoxy-1,3-thiazol-4-yl)hexan-2-yl]-9a,11a-dimethylhexadecahydro-1H-cyclopenta[1,2-a]phenanthrene-6,7-diol] the IC50 (16 hours) was 0.04 µM.
